According to patent US20120165304A1, “6,7,8,9-Tetrahydro-5H-1,4,7,10a-tetraaza-cyclohept[f]indene derivatives, pharmaceutical compositions containing these compounds, their use and processes for preparing them” (BOEHRINGER INGELHEIM INTERNATIONAL GMBH, priority 2008, published 2012):

target: human 5-HT2C receptor (Homo sapiens, UniProt P28335, I156V/I160V/N158S); experiment: cell-based
Sequence (P28335 33-458 I156V/N158S/I160V limits assumed): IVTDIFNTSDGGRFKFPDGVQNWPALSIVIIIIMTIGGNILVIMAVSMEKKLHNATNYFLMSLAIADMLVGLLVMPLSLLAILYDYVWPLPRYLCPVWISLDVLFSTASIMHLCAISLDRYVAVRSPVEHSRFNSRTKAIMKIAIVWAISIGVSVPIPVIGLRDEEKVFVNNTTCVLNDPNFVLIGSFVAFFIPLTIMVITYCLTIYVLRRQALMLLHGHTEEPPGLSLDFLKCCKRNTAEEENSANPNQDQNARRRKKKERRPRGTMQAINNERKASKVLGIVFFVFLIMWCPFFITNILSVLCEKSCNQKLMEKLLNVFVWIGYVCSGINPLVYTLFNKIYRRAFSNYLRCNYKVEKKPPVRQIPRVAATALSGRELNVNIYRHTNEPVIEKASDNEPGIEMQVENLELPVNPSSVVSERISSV

Structure (SMILES)	EC50
Cc1cnn2c(N3CC(C(=O)N4CCc5ccccc54)C3)c3c(nc12)CCNCC3 [Example 31.236]	31 nM
COc1ccc(C2(CNC(=O)C3CN(c4c5c(nc6ccnn46)CCNCC5)C3)CCCCC2)cc1 [Example 31.185]	1470 nM
CCCCN1CCCN(C(=O)C2CN(c3c4c(nc5ccnn35)CCN(C)CC4)C2)CC1 [Example 36.36]	256 nM
C#CC(C)(C)NC(=O)C1CN(c2c3c(nc4ccnn24)CCNCC3)C1 [Example 37.91]	301 nM
CN(Cc1c(Cl)cccc1Cl)C(=O)C1CN(c2c3c(nc4ccnn24)CCNCC3)C1 [Example 31.160]	458 nM
CN1CCc2nc3ccnn3c(N3CC(C(=O)N4CCC(C(F)(F)F)C4)C3)c2CC1 (stereo not shown) [Example 36.27]	89 nM
COc1cccc(OCC2CN(c3c4c(nc5ccnn35)CCNCC4)C2)c1 [Example 15.20]	26 nM
CN1CCc2nc3ccnn3c(N3CC(C(=O)NC4CCOCC4)C3)c2CC1 [Example 36.35]	114 nM
CN1CCc2nc3ccnn3c(N3CC(C(=O)N4CCN(C)CC4)C3)c2CC1 [Example 36.51]	81 nM
CC(C)OCCNC(=O)C1CN(c2c3c(nc4ccnn24)CCNCC3)C1 [Example 37.96]	111 nM
O=C(C1CN(c2c3c(nc4ccnn24)CCNCC3)C1)N1CCCC1 [Example 31.64]	199 nM
O=C(C1CN(c2c3c(nc4ccnn24)CCNCC3)C1)N1CCCC(c2ccccc2)CC1 (stereo not shown) [Example 31.152]	77 nM
Cc1ccc(OC2CN(c3c4c(nc5ccnn35)CCNCC4)C2)cc1 [Example 35.45]	129 nM
CN(c1ccccc1)C1CCN(C(=O)C2CN(c3c4c(nc5ccnn35)CCNCC4)C2)CC1 [Example 37.46]	2 nM
CC(C)N1CCN(C(=O)C2CN(c3c4c(nc5ccnn35)CCN(C)CC4)C2)CC1 [Example 36.6]	67 nM
CN(Cc1ccc(Cl)c(Cl)c1)C(=O)C1CN(c2c3c(nc4ccnn24)CCNCC3)C1 [Example 31.81]	33 nM
OC[C@H]1CCN1c1c2c(nc3ccnn13)CCNCC2 [Example 8.2]	105 nM
O=C(C1CN(c2c3c(nc4ccnn24)CCNCC3)C1)N1CCC(c2ccc(Cl)cc2)CC1 [Example 31.115]	55 nM
Cc1ncccc1OC1CN(c2c3c(nc4ccnn24)CCNCC3)C1 [Example 35.24]	120 nM
O=C(C1CN(c2c3c(nc4ccnn24)CCNCC3)C1)N1CCC(C(F)(F)F)CC1 [Example 31.83]	8 nM
CCN(C(=O)C1CN(c2c3c(nc4ccnn24)CCNCC3)C1)C(C)C [Example 31.11]	306 nM

Structure (SMILES)	EC50
CN1CCc2nc3ccnn3c(N3CC(C(=O)N4CCC(F)(F)C4)C3)c2CC1 [Example 36.30]	117 nM
O=C(NCC1CCC1)C1CN(c2c3c(nc4ccnn24)CCNCC3)C1 [Example 37.50]	51 nM
O=C(NCC1CCCCC1)C1CN(c2c3c(nc4ccnn24)CCNCC3)C1 [Example 31.225]	111 nM
CO[C@@H]1CCN(C(=O)C2CN(c3c4c(nc5ccnn35)CCN(C)CC4)C2)C1 [Example 36.38]	86 nM
CN(C)C(=O)[C@@H]1CCN(c2c3c(nc4ccnn24)CCNCC3)C1 [Example 1.62]	2070 nM
Cc1cnn2c(N3CC(C(=O)N4CCc5c(cccc5C(F)(F)F)C4)C3)c3c(nc12)CCNCC3 [Example 31.239]	80 nM
O=C(C1CN(c2c3c(nc4ccnn24)CCNCC3)C1)N1C[C@@H]2C[C@H]1CN2 [Example 37.28]	6 nM
Cc1ccccc1N1CCN(C(=O)C2CN(c3c4c(nc5ccnn35)CCNCC4)C2)CC1 [Example 37.37]	9 nM
CCN(C)C(=O)C1CN(c2c3c(nc4ccnn24)CCNCC3)C1 [Example 31.4]	685 nM
Brc1cnn2c(N3CCC(c4ccccc4)C3)c3c(nc12)CCNCC3 (stereo not shown) [Example 2.2]	56 nM
O=C(NCCF)C1CN(c2c3c(nc4ccnn24)CCNCC3)C1 [Example 37.107]	91 nM
O=C(C1CN(c2c3c(nc4c(Br)cnn24)CCNCC3)C1)N1CCC2(CCCCC2)CC1 [Example 31.132]	254 nM
O=C(C1CN(c2c3c(nc4ccnn24)CCNCC3)C1)N1CCCC(c2ccccc2)C1 (stereo not shown) [Example 31.108]	113 nM
CN1CCC(CNC(=O)C2CN(c3c4c(nc5ccnn35)CCNCC4)C2)CC1 [Example 37.89]	19 nM
O=C(C1CN(c2c3c(nc4ccnn24)CCNCC3)C1)N1CCN(C2CCCC2)CC1 [Example 37.11]	2 nM
c1ccc(OC2CN(c3c4c(nc5ccnn35)CCNCC4)C2)nc1 [Example 20.6]	38 nM
c1ccc(OCC2CN(c3c4c(nc5ccnn35)CCNCC4)C2)nc1 [Example 15.28]	24 nM
c1ccc2c(c1)nc(C1CN(c3c4c(nc5ccnn35)CCNCC4)C1)n2C1CCCC1 [Example 34.29]	96 nM
O=C(C1CN(c2c3c(nc4ccnn24)CCNCC3)C1)N(Cc1ccccc1)Cc1ccc(F)cc1 [Example 31.197]	122 nM
CN1CCCN(C(=O)C2CN(c3c4c(nc5ccnn35)CCNCC4)C2)CC1 [Example 37.10]	2 nM
CCn1c(C2CN(c3c4c(nc5ccnn35)CCNCC4)C2)nc2cc(F)ccc21 [Example 34.39]	666 nM

Structure (SMILES)	EC50
CN1CCc2nc3ccnn3c(N3CC(C(=O)N4CC[C@H]5CNC[C@H]54)C3)c2CC1 [Example 36.40]	283 nM
O=C(C1CN(c2c3c(nc4ccnn24)CCNCC3)C1)N1CCC(c2ccccc2F)C1 (stereo not shown) [Example 31.116]	60 nM
COc1ccc2c(c1)CCN(c1c3c(nc4ccnn14)CCNCC3)C2 [Example 1.23]	522 nM
Cc1csc(C2CN(c3c4c(nc5ccnn35)CCNCC4)C2)n1 [Example 11, 10-[3-(4-Methyl-thiazol-2-yl)-azetidin-1-yl]-6,7,8,9-tetrahydro-5H-1,4,7,10a-tetraaza-cyclohepta[f]indene]	161 nM
CN(CC1CCCCC1)C(=O)C1CN(c2c3c(nc4ccnn24)CCNCC3)C1 [Example 31.100]	158 nM
O=C(C1CN(c2c3c(nc4ccnn24)CCNCC3)C1)N1CCc2ccc(Br)cc2C1 [Example 31.209]	95 nM
O=C(C1CN(c2c3c(nc4ccnn24)CCNCC3)C1)N1CCC2(CCCC2)C1 [Example 31.123]	9 nM
Brc1cccc(OC2CN(c3c4c(nc5ccnn35)CCNCC4)C2)c1 [Example 35.14]	477 nM
O=C(N[C@H]1C[C@@H]1c1ccccc1)C1CN(c2c3c(nc4ccnn24)CCNCC3)C1 [Example 31.28]	314 nM
CN(Cc1ccc(OC(F)F)cc1)C(=O)C1CN(c2c3c(nc4ccnn24)CCNCC3)C1 [Example 31.161]	15 nM
c1cc(OC2CN(c3c4c(nc5ccnn35)CCNCC4)C2)c2ccncc2c1 [Example 35.16]	92 nM
CC(C)c1ccc(CN(C)C(=O)C2CN(c3c4c(nc5ccnn35)CCNCC4)C2)cc1 [Example 31.163]	108 nM
Cc1cccc(CN(C)C(=O)C2CN(c3c4c(nc5ccnn35)CCNCC4)C2)c1 [Example 31.49]	51 nM
c1ccc(C2OCCN(c3c4c(nc5ccnn35)CCNCC4)C2c2ccccc2)cc1 (stereo not shown) [Example 1.40]	1290 nM
CC1(N)CCN(C(=O)C2CN(c3c4c(nc5ccnn35)CCNCC4)C2)CC1 [Example 37.18]	2 nM
CN1CCc2nc3ccnn3c(N3CC(C(=O)N4CCN(C(=O)C5CCCCC5)CC4)C3)c2CC1 [Example 36.22]	181 nM
CC1CCCCN1C(=O)C1CN(c2c3c(nc4ccnn24)CCNCC3)C1 (stereo not shown) [Example 31.62]	925 nM
Cc1cnn2c(N3CC(C(=O)N(C)Cc4ccc(OC(F)F)cc4)C3)c3c(nc12)CCNCC3 [Example 31.249]	16 nM
Fc1cccc(Cl)c1OCC1CN(c2c3c(nc4ccnn24)CCNCC3)C1 [Example 15.14]	2 nM
COc1cccc(COC2CN(c3c4c(nc5ccnn35)CCNCC4)C2)c1 [Example 20.13]	347 nM
O=C(C1CN(c2c3c(nc4ccnn24)CCNCC3)C1)N1CCCNCC1 [Example 37.6]	2 nM

Structure (SMILES)	EC50
CNCCN(C)C(=O)C1CN(c2c3c(nc4ccnn24)CCNCC3)C1 [Example 37.20]	26 nM
CC(C)c1ccccc1OC1CCN(C(=O)C2CN(c3c4c(nc5ccnn35)CCNCC4)C2)CC1 [Example 31.219]	124 nM
c1ccc(CCn2c(C3CN(c4c5c(nc6ccnn46)CCNCC5)C3)nc3ccccc32)cc1 [Example 34.36]	353 nM
O=C(NC1CC2CCC1C2)C1CN(c2c3c(nc4ccnn24)CCNCC3)C1 (stereo not shown) [Example 37.84]	62 nM
FC(F)(F)c1ccccc1OC1CN(c2c3c(nc4ccnn24)CCNCC3)C1 [Example 35.31]	129 nM
O=C(C1CN(c2c3c(nc4ccnn24)CCNCC3)C1)N1CCC2(CCCCC2)CC1 [Example 31.35]	50 nM
O=C(C1CN(c2c3c(nc4ccnn24)CCNCC3)C1)N1CCc2ccccc21 [Example 31.143]	49 nM
CC1(C)CCN(C(=O)C2CN(c3c4c(nc5ccnn35)CCNCC4)C2)C1 [Example 31.53]	8 nM
COc1ccc2ccc(OC3CN(c4c5c(nc6ccnn46)CCNCC5)C3)cc2c1 [Example 35.11]	926 nM
COc1ccc(OC2CN(c3c4c(nc5ccnn35)CCNCC4)C2)c(Br)c1 [Example 35.30]	40 nM
FC(F)(F)c1ccc2c(c1)nc(C1CN(c3c4c(nc5ccnn35)CCNCC4)C1)n2Cc1ccccc1 [Example 34.34]	2090 nM
Cn1c(C2CN(c3c4c(nc5ccnn35)CCNCC4)C2)nc2ccc(Cl)cc21 [Example 34.6]	65 nM
Cc1ccc(F)c(OCC2CN(c3c4c(nc5ccnn35)CCNCC4)C2)c1F [Example 15.24]	54 nM
O=C(C1CN(c2c3c(nc4ccnn24)CCNCC3)C1)N1CCCC(C2CCCCC2)C1 (stereo not shown) [Example 31.70]	175 nM
Fc1ccc2[nH]c(C3CN(c4c5c(nc6ccnn46)CCNCC5)C3)nc2c1F [Example 34.23]	594 nM
CN1CCc2nc3ccnn3c(N3CC(C(=O)N4CCCNCC4)C3)c2CC1 [Example 36.59]	173 nM
CN(Cc1ccccc1)C(=O)C1CN(c2c3c(nc4ccnn24)CCNCC3)C1 [Example 31.19]	50 nM
CN1CCN(C(=O)C2CN(c3c4c(nc5ccnn35)CCNCC4)C2)CC1 [Example 37.35]	4 nM
COCCN(C)C(=O)C1CN(c2c3c(nc4ccnn24)CCNCC3)C1 [Example 31.3]	885 nM
